According to patent US20130217122A1, “Expansion of Interferon-Gamma-Producing T-Cells Using Glypican-3 Peptide Library” (The Trustees of the University of Pennsylvania, priority 2012, published 2013):

Key:
[1] = system: CD8+ T-cells; assay type: cell-based, human
[2] = target: HLA-A2.1 (Homo sapiens, UniProt P04439, D140Y/D185E/D98H/E176V/E277Q/G131W/G231S/I119V/I121R/I166T/I218V/L300P/L318F/N151K/N90K/P208A/P217A/Q86G/Q94H/R138H/R169H/T345S); test: T2 binding assay; settings: 9-10 mer epitopes
[3] = system: CD8+ T-cells; assay type: cell-based, human; remark: listed apart in the source
[4] = target: T1, human HLA-A2.1 on T2 cells (human); test: T2 binding assay (HLA-A2 on T2 cells, flow cytometry)
T1 construct: whole, on cells; Empty or peptide-receptive HLA-A2.1 on TAP-deficient T2 cells; also called HLA-A*0201; class I MHC molecules

Molecule	Median pentamer+/CD8+ cells (range) [1]	No. with pentamer + cluster [1]	No. with pentamer + cluster (%) [1]	binding affinity of optimum HLA-A2-binding epitopes [2]	PD-1 expression in pentamer-positive versus pentamer-negative CD8+ T-cells [1]	IFNγ secretion by expanded cells restimulated with cognate antigens [3]	expansion of pentamer-specific CD8+ T-cells [3]	binding result [4]
CINGVCWTV [NS3 1073, reference compound]	0.07 (0.03-0.10) %	2 (29)	2 (29) %	–	–	–	–	–
ELFDSLFPV [GPC3 169-178, peptide and HLA-A2.1 pentamer loaded with it]	1.00 (0.20-1.60) %	5 (63)	5 (63) %	strong binding affinity	–	–	–	–
FEFVGEFFTD [GPC3 142-151, peptide and HLA-A2.1 pentamer loaded with it]	0.47 (0.03-0.90) %	2 (22)	2 (22) %	strong binding affinity	–	–	–	–
GILGFTFVL [Flu matrix, reference compound]	0.40 (0.30-1.30) %	5 (56)	5 (56) %	–	–	–	–	–
KLLTSMAISV [GPC3 563-572, peptide and HLA-A2.1 pentamer loaded with it]	0.45 (0.05-1.60) %	4 (44)	4 (44) %	strong binding affinity	strong trend	–	–	–
LMLGEFLKL [SurlM2, reference compound]	0.20 (0.20-0.20) %	1 (11)	1 (11) %	–	–	–	–	–
RLQPGLKWV [GPC3 44-52, peptide and HLA-A2.1 pentamer loaded with it]	0.20 (0.10-0.30) %	3 (33)	3 (33) %	strong binding affinity	significantly greater	minimal-to-absent	readily detectable expansion	–
SLTPQAFEFV [GPC3 136-145, peptide and HLA-A2.1 pentamer loaded with it]	0.70 (0.05-1.30) %	4 (50)	4 (50) %	strong binding affinity	–	–	–	–
ELFDSLFPV (Synthetic 9 mer of human glypican-3 (NP-004475); also called GPC3 169-177; GPC3169-177) [Glypican-3 169-177 (ELFDSLFPV)]	–	–	–	–	–	–	–	binds
KLLTSMAISV (Synthetic 10 mer of human glypican-3 (NP-004475); also called GPC3 563-572; GPC3563-572) [Glypican-3 563-572 (KLLTSMAISV)]	–	–	–	–	–	–	–	binds
FEFVGEFFTD (Synthetic 10 mer of human glypican-3 (NP-004475); also called GPC3 142-151; GPC3142-151) [Glypican-3 142-151 (FEFVGEFFTD)]	–	–	–	–	–	–	–	binds
RLQPGLKWV (Synthetic 9 mer of human glypican-3 (NP-004475); also called GPC3 44-52; GPC344-52) [Glypican-3 44-52 (RLQPGLKWV)]	–	–	–	–	–	–	–	binds
